In US20040132803A1, “Agent for the treatment of overactive bladder” (priority 2003, published 2004):

Columns and labels:
Assay type in all cases: cell-based, rat
[1] = test system: slowly-inactivating A-type K^+ currents; assay: Voltage-clamp outward K^+ currents at HP −90 mV in unidentified DRG neurons; conditions: for K^+ current at HP: −90 mV, relative value (before compound = 1): unidentified DRG neurons
Protocol: (§1) Experiments were performed on adult female Sprague Dawley rats. First and second series of the experiments were performed, respectively, in unidentified DRG neurons and a specific population of DRG neurons innervating the urinary bladder. The population of DRG neurons that innervate the urinary bladder were labeled by retrograde axonal transport of the fluorescent dye, Fast Blue (4% w/v) (Polyloy, Gross Umstadt, Germany), injected into the wall of the bladder in halothane-anesthetized animals 7 days before the dissociation. The dye was injected with a 28 gauge needle at three to six sites on the dorsal surface of the organ (5-6 μL per site, total volume of 20-30 μL). Each injection site was washed with saline to minimize contamination of adjacent organs with the dye.
(§2) Freshly dissociated neurons from DRG were prepared from halothane-anesthetized animals. L6 and S1 DRG were dissected from animals and then dissociated in a shaking bath for 25 minutes at 35° C. with 5 mL DMEM (Sigma) containing 0.3 mg/mL trypsin (Type 3, Sigma), 1 mg/mL collagenase (Type 1, Sigma), and 0.1 mg/mL deoxyribonuclease (Type 4, Sigma). Trypsin inhibitor (Type 2a, Sigma) was then added thereto to neutralize the activity of trypsin. Individual DRG cell bodies were isolated by trituration and then plated on a poly-L-lysine-coated 35 mm Petri dishes.
(§3) Dye-labeled primary afferent neurons that innervate the urinary bladder were identified using an inverted phase-contrast microscope (Nikon, Tokyo, Japan) with fluorescent attachments (UV-1A filter; excitation wavelength, 365 nm). Gigaohm-seal whole-cell recordings were performed at room temperature (20-22° C.) on each labeled neuron in a culture dish that usually contained three to seven labeled cells among a few hundred unlabeled neurons. The internal solution contained (in mmol/L): KCl 140, CaCl2 1, MgCl2 2, EGTA 11, HEPES 10, Mg-ATP 2, and Tris-GTP 0.4 adjusted to pH 7.4 with KOH. Patch electrodes had resistances of 1-4 MΩ when filled with the internal solution. Neurons were superfused at a flow rate of 1.5 mL/minutes with an external solution containing (in mmol/L): NaCl 150, KCl 5, CaCl2 2.5, MgCl2 1, HEPES 10, and D-glucose 10, adjusted to pH 7.4 with NaOH. All recordings were made with an Axopatch-1D patch-clamp amplifier (Axon Instruments, Foster City, Calif.), and data were acquired and analyzed by PCLAMP software (Axon Instruments).
(§4) In voltage-clamp recordings, outward K^+ currents and inward Na^+ currents were measured. For the isolation of K^+ currents, the external solution was changed to one containing (in mmol/L): choline-Cl 150, KOH 5, CaCl2 0.03, HEPES 10, Mg(OH)2 3, and D-glucose 10, adjusted to pH 7.4 with HCl.
(§5) In first series of experiments using unidentified DRG neurons, outward K^+ currents were evoked by voltage steps to +60 mV, 800 ms long from a holding potentials of −90 mV, this was followed by a 1-second conditioning prepulse to −20 mV followed by a second pulse to +60 mV, identical to the first in the sequence. In the second series of experiments using Fast Blue-labeled bladder afferent neurons, slowly-inactivating A-type K^+ currents were isolated by. subtraction of outward K^+ currents activated from a holding potential of −40 mV (on the condition of inactivation of the majority of slowly-inactivating A-type K^+ currents) from those activated from a holding potential of −120 mV (on the condition of full activation of slowly-inactivating A-type K^+ currents). A compound was added cumulatively, starting with a lower concentration. Currents were measured at the maximum (peak) and normalized to control (before addition of the compound).

[2] = test system: delayed rectifier K^+ currents; assay: Voltage-clamp outward K^+ currents at HP −20 mV in unidentified DRG neurons; conditions: for K^+ current at HP: −20 mV, relative value (before compound = 1): unidentified DRG neurons
Protocol: as §1, §2, §3, §4, §5

[3] = test system: slowly-inactivating A-type K^+ currents; assay: Slowly-inactivating A-type K^+ currents in Fast Blue-labeled capsaicin-sensitive bladder afferent neurons; conditions: 1.0 × 10^−6 mol/L
Protocol: as §1
(§6) Freshly dissociated neurons from DRG were prepared from halothane-anesthetized animals. […]
(§7) Dye-labeled primary afferent neurons that innervate the urinary bladder were identified using an inverted phase-contrast microscope (Nikon, Tokyo, Japan) with fluorescent attachments (UV-1A filter; excitation wavelength, 365 nm). […] All recordings were made with an Axopatch-1D patch-clamp amplifier (Axon Instruments, Foster City, Calif.), and data were acquired and analyzed by PCLAMP software (Axon Instruments).
(§8) In voltage-clamp recordings, outward K^+ currents and inward Na^+ currents were measured. […]

[4] = test system: delayed rectifier K^+ currents; assay: Delayed rectifier K^+ currents in Fast Blue-labeled capsaicin-sensitive bladder afferent neurons; conditions: 1.0 × 10^−6 mol/L
Protocol: as §1, §6, §7, §8

[5] = 1.0 × 10^−5 mol/L, in the presence of 5 μmol/L verapamil
[6] = 1.0 × 10^−5 mol/L, in the presence of 20 mmol/L tetraethylammonium
[7] = 1.0 × 10^−6 mol/L, in the presence of 5 μmol/L verapamil
[8] = 1.0 × 10^−6 mol/L, in the presence of 20 mmol/L tetraethylammonium
[9] = 1.0 × 10^−7 mol/L, in the presence of 5 μmol/L verapamil
[10] = 1.0 × 10^−7 mol/L, in the presence of 20 mmol/L tetraethylammonium
[11] = 5.0 × 10^−4 mol/L, in the presence of 5 μmol/L verapamil
[12] = 5.0 × 10^−4 mol/L, in the presence of 20 mmol/L tetraethylammonium
[13] = 5.0 × 10^−4 mol/L, in the presence of 60 mmol/L tetraethylammonium
[14] = 5.0 × 10^−5 mol/L, in the presence of 5 μmol/L verapamil
[15] = 5.0 × 10^−5 mol/L, in the presence of 20 mmol/L tetraethylammonium
[16] = 5.0 × 10^−5 mol/L, in the presence of 60 mmol/L tetraethylammonium
[17] = 5.0 × 10^−6 mol/L, in the presence of 5 μmol/L verapamil
[18] = 5.0 × 10^−6 mol/L, in the presence of 20 mmol/L tetraethylammonium
[19] = 5.0 × 10^−6 mol/L, in the presence of 60 mmol/L tetraethylammonium
[20] = 5.0 × 10^−7 mol/L, in the presence of 5 μmol/L verapamil
[21] = 5.0 × 10^−7 mol/L, in the presence of 20 mmol/L tetraethylammonium
[22] = 5.0 × 10^−7 mol/L, in the presence of 60 mmol/L tetraethylammonium
[23] = 5.0 × 10^−8 mol/L, in the presence of 5 μmol/L verapamil
[24] = 5.0 × 10^−8 mol/L, in the presence of 20 mmol/L tetraethylammonium
[25] = 5.0 × 10^−8 mol/L, in the presence of 60 mmol/L tetraethylammonium
[26] = 5.0 × 10^−9 mol/L, in the presence of 20 mmol/L tetraethylammonium

C[C@](O)(C(=O)Nc1cccc2c1C(=O)c1sccc1CS2(=O)=O)C(F)(F)F [Compound 1, (S)-(+)-N-(5,5-dioxido-10-oxo-4,10-dihydrothieno[3,2-c][l]benzothiepin-9-yl)-3,3,3-trifluoro-2-hydroxy-2-methylpropanamide]
K^+ current at HP: −90 mV, relative value [1, 5]: 0.99 ± 0.02 | K^+ current at HP: −90 mV, relative value [1, 6]: 1.19 ± 0.01 | K^+ current at HP: −90 mV, relative value (before compound = 1) ([1]; 1.0 × 10^−5 mol/L): 0.96 ± 0.05 | K^+ current at HP: −90 mV, relative value [1, 7]: 1.11 ± 0.03 | K^+ current at HP: −90 mV, relative value [1, 8]: 1.19 ± 0.05 | K^+ current at HP: −90 mV, relative value (before compound = 1) ([1]; 1.0 × 10^−6 mol/L): 1.06 ± 0.02 | K^+ current at HP: −90 mV, relative value [1, 9]: 1.13 ± 0.02 | K^+ current at HP: −90 mV, relative value [1, 10]: 1.10 ± 0.01 | K^+ current at HP: −90 mV, relative value (before compound = 1) ([1]; 1.0 × 10^−7 mol/L): 1.12 ± 0.03 | K^+ current at HP: −90 mV, relative value (before compound = 1) ([1]; 1.0 × 10^−8 mol/L): 0.99 ± 0.08 | K^+ current at HP: −90 mV, relative value (before compound = 1) ([1]; 2.5 × 10^−8 mol/L): 1.07 ± 0.03 | K^+ current at HP: −90 mV, relative value [1, 11]: 0.61 ± 0.05 | K^+ current at HP: −90 mV, relative value [1, 12]: 0.29 ± 0.02 | K^+ current at HP: −90 mV, relative value [1, 13]: 0.56 ± 0.05 | K^+ current at HP: −90 mV, relative value [1, 14]: 0.94 ± 0.02 | K^+ current at HP: −90 mV, relative value [1, 15]: 0.91 ± 0.04 | K^+ current at HP: −90 mV, relative value [1, 16]: 1.15 ± 0.08 | K^+ current at HP: −90 mV, relative value (before compound = 1) ([1]; 5.0 × 10^−5 mol/L): 0.83 ± 0.09 | K^+ current at HP: −90 mV, relative value [1, 17]: 1.02 ± 0.03 | K^+ current at HP: −90 mV, relative value [1, 18]: 1.16 ± 0.03 | K^+ current at HP: −90 mV, relative value [1, 19]: 1.14 ± 0.05 | K^+ current at HP: −90 mV, relative value [1, 20]: 1.17 ± 0.03 | K^+ current at HP: −90 mV, relative value [1, 21]: 1.15 ± 0.04 | K^+ current at HP: −90 mV, relative value [1, 22]: 1.11 ± 0.03 | K^+ current at HP: −90 mV, relative value (before compound = 1) ([1]; 5.0 × 10^−7 mol/L): 1.15 ± 0.03 | K^+ current at HP: −90 mV, relative value [1, 23]: 1.03 ± 0.02 | K^+ current at HP: −90 mV, relative value [1, 24]: 1.08 ± 0.02 | K^+ current at HP: −90 mV, relative value [1, 25]: 1.08 ± 0.02 | K^+ current at HP: −90 mV, relative value (before compound = 1) ([1]; 5.0 × 10^−8 mol/L): 1.07 ± 0.02 | K^+ current at HP: −90 mV, relative value [1, 26]: 1.02 ± 0.02 | K^+ current at HP: −90 mV, relative value (before compound = 1) ([1]; 5.0 × 10^−9 mol/L): 1.01 ± 0.03 | peak compound concentration for increase of slowly-inactivating A-type K^+ currents ([1]; unidentified DRG cells, HP −90 mV): 1e-07 to 5e-07 mol/L | K^+ current at HP: −20 mV, relative value [2, 5]: 1.00 ± 0.02 | K^+ current at HP: −20 mV, relative value [2, 6]: 1.01 ± 0.02 | K^+ current at HP: −20 mV, relative value (before compound = 1) ([2]; 1.0 × 10^−5 mol/L): 0.88 ± 0.07 | K^+ current at HP: −20 mV, relative value [2, 7]: 1.00 ± 0.01 | K^+ current at HP: −20 mV, relative value [2, 8]: 1.00 ± 0.00 | K^+ current at HP: −20 mV, relative value (before compound = 1) ([2]; 1.0 × 10^−6 mol/L): 1.00 ± 0.02 | K^+ current at HP: −20 mV, relative value [2, 9]: 1.00 ± 0.01 | K^+ current at HP: −20 mV, relative value [2, 10]: 0.99 ± 0.02 | K^+ current at HP: −20 mV, relative value (before compound = 1) ([2]; 1.0 × 10^−7 mol/L): 1.02 ± 0.01 | K^+ current at HP: −20 mV, relative value (before compound = 1) ([2]; 1.0 × 10^−8 mol/L): 0.98 ± 0.04 | K^+ current at HP: −20 mV, relative value (before compound = 1) ([2]; 2.5 × 10^−8 mol/L): 1.01 ± 0.03 | K^+ current at HP: −20 mV, relative value [2, 11]: 0.83 ± 0.06 | K^+ current at HP: −20 mV, relative value [2, 12]: 0.25 ± 0.04 | K^+ current at HP: −20 mV, relative value [2, 13]: 0.54 ± 0.02 | K^+ current at HP: −20 mV, relative value [2, 14]: 0.98 ± 0.01 | K^+ current at HP: −20 mV, relative value [2, 15]: 0.84 ± 0.06 | K^+ current at HP: −20 mV, relative value [2, 16]: 0.95 ± 0.03 | K^+ current at HP: −20 mV, relative value (before compound = 1) ([2]; 5.0 × 10^−5 mol/L): 0.81 ± 0.08 | K^+ current at HP: −20 mV, relative value [2, 17]: 1.01 ± 0.01 | K^+ current at HP: −20 mV, relative value [2, 18]: 0.98 ± 0.01 | K^+ current at HP: −20 mV, relative value [2, 19]: 0.97 ± 0.02 | K^+ current at HP: −20 mV, relative value [2, 20]: 1.00 ± 0.01 | K^+ current at HP: −20 mV, relative value [2, 21]: 1.01 ± 0.01 | K^+ current at HP: −20 mV, relative value [2, 22]: 0.97 ± 0.03 | K^+ current at HP: −20 mV, relative value (before compound = 1) ([2]; 5.0 × 10^−7 mol/L): 1.01 ± 0.02 | K^+ current at HP: −20 mV, relative value [2, 23]: 1.00 ± 0.00 | K^+ current at HP: −20 mV, relative value [2, 24]: 0.99 ± 0.01 | K^+ current at HP: −20 mV, relative value [2, 25]: 1.00 ± 0.01 | K^+ current at HP: −20 mV, relative value (before compound = 1) ([2]; 5.0 × 10^−8 mol/L): 1.00 ± 0.01 | K^+ current at HP: −20 mV, relative value [2, 26]: 0.99 ± 0.00 | K^+ current at HP: −20 mV, relative value (before compound = 1) ([2]; 5.0 × 10^−9 mol/L): 0.98 ± 0.02 | influence upon delayed rectifier K^+ currents ([2]; unidentified DRG cells, HP −20 mV): does not have no influences (little influences) | A-type IK (HP: −120 mV)-(HP: −40 mV), normalized to control [3]: 1.26 ± 0.03 | Delayed rectifier HP: −40 mV, normalized to control [4]: 1.10 ± 0.01
